Measurements from US20190002492A1, “DERIVATIVES OF ALLOPR[…] OF EPIALLOPR[…] USES THEREOF FOR TREATING A NEUROPATHOLOGICAL CONDITION” (UNIVERSITE DE STRASBOURG, priority 2011, published 2019).

Key:
Type in all cases: in vivo, rat
[1] = tested on: Sprague-Dawley rats; test: Von Frey filament test, painful neuropathy caused by vincristine; conditions: rats with vincristine neuropathy, 4 mg/kg i.p. every 2 days for 2 weeks
Excerpt: (§1) Adult male Sprague-Dawley rats weighing between 250 and 300 g were used. They came from the company Janvier (le Genest St. Isle, France). The care and handling of the animals were done in accordance with the guidelines from the Council of the European Community (86/609/EC) and in accordance with the ethical rules of the International Association for the Study of Pain. The protocol used to carry out the in vivo studies was subject to examination and authorization granted to Prof. Mensah-Nyagan's team by the Alsatian Department of the Veterinary Public Health Guide for the Care and Use of Laboratory Animals (Approval number 67-186). The rats were housed under standard conditions with a photoperiod of 12 h day/12 h night, with unlimited food and water. The animals spent one acclimatization week before being integrated into the experimental protocols. Each animal was examined daily to detect any signs of deterioration of its health condition, such as dramatic weight loss, a decrease in appetite during chemotherapy and pharmacological treatment.
(§2) Vincristine sulfate (VINC), purchased from Sigma-Aldrich (St. Louis, Mo., USA), was dissolved in a physiological saline solution (NaCl 0.9%) at 0.1 mg/ml and stored at 4° C. The saline solution (NaCl 0.9%) is used as excipient. The VINC is injected daily by intraperitoneal injection (i.p.), in 2 cycles of 5 days separated by 2 days off, at a concentration of 0.1 mg/kg/day. The control animals were injected by i.p. (1 ml/kg) with the excipient using a similar protocol.
(§3) The allopregnanolone in the derivatives according to the invention (BR053 and BR297) were diluted in a hydroxypropylcellulose (HPC) solution (0.3%) used as excipient. The curative treatment with allopregnanolone, BR053 or BR297 began 3 days after the vincristine cycles. Each of these compounds (allopregnanolone, BR053 or BR297) was administered by the intraperitoneal route at a dose of 4 mg/kg at a rate of one injection every 2 days. Thus, over the total duration of the in vivo experiments (14 days), each animal received 7 injections of excipient, allopregnanolone, BR053 or BR297, based on its group, at a dose of 4 mg/kg. The animals were sacrificed 24 hours after the last behavioral test (28th day) to remove tissues that will be used for later histology and electrophysiology studies.
(§4) The mechanical nociceptive sensitivity threshold was evaluated in rats placed in individual Plexiglas boxes (30×30×25 cm) mounted on a raised mesh support thereby allowing access to the surface or arch of the back feet. The presence of allodynia (exaggerated response following a normally […] stimulation) was measured using a series of calibrated von Frey filaments (1, 2, 4, 6, 8, 10, 15, 26, 100, 180 and 300 g; Stoelting, Wood Dale, Ill., USA), which were applied on the sole of the back foot of the animal with increasing force until the filament twisted. The filament was applied for a period of 1 to 2 seconds and the procedure was repeated 5 times at 4-5 second intervals. The withdrawal threshold of the foot was calculated by taking the average of […] repeated stimuli (in grams) that caused a reflex to withdraw the foot. Only vigorous and fast withdrawals of the foot were considered positive. In the experiments, the naïve animals never responded to the 4 g filament and responded 25-30% of the time to the 15 g filament.

[2] = tested on: Sprague-Dawley rats; test: Acetone test of thermal allodynia to cold, painful neuropathy caused by vincristine; conditions: rats with vincristine neuropathy, 4 mg/kg i.p. every 2 days for 2 weeks
Excerpt: as §1, §2, §3
The thermal nociceptive sensitivity threshold to cold was measured in rats placed in individual Plexiglas boxes (30×30×25 cm) mounted on a raised mesh support so as to allow access to the sole of the animal's foot. […] Six measurements (3 per foot) were performed with a latency of 5 minutes between each stimulation. The average latency for withdrawal of the feet (in seconds) was calculated by averaging 6 measurements at each studied point in time. […]

[3] = tested on: Sprague-Dawley rats; test: Von Frey mechanical nociceptive sensitivity threshold in healthy animals not treated with vincristine; conditions: 4 mg/kg every 2 days for 2 weeks
Excerpt: as §1, §3
as §4, with “In the experiments, the naïve animals never responded to the 4 g filament and responded 25-30% of the time to the 15 g filament.” left out

Structure (SMILES) | Effect on mechanical allodynia and mechanical hyperalgesia [1] | Effect on thermal allodynia to cold [2] | Anti-nociceptive effect in healthy animals [3]
CC(=O)[C@H]1CCC2C3CC[C@H]4C[C@@H](O)CC[C@]4(C)C3CC(=O)[C@@]21C (stereo partly drawn) [BR053] | eliminates the symptoms | eliminates the symptoms | does not cause any anti-nociceptive effect
C=CCO[C@H]1CC[C@]2(C)C3CC[C@@]4(C)C(CC[C@@H]4C(C)=O)C3CC[C@H]2C1 (stereo partly drawn) [BR297] | eliminates the symptoms | eliminates the symptoms | does not cause any anti-nociceptive effect
